The values below come from patent publication EP3958860B1, “COMPOUNDS EXHIBITING ANTI-TUBERCULOSIS ACTIVITY” (priority 2019, dated 2021).

Data set [1] deals with Mycobacterium tuberculosis H37Rv. The experiment in a line: MIC determination by MABA (Microplate Alamar Blue Assay). In kind it is cell-based. Conditions: for MIC: Mycobacterium tuberculosis, H37RV. As to the method: Following this, to determine the actual minimum inhibitory concentration in the second phase, both of the compounds were retested to the lowest concentration of Mycobacterium tuberculosis H37Rv with the technique of MABA (Microplate Alamar Blue Assay) and MIC value for the 1st compound was determined <0.03 µg/ml while this value was determined <0.05 µg/ml for the second compound. The result of Rifampicin subjected to the assay under the same conditions was determined as 0.25 µg/ml.
On the technique in general: Resazurin is reduced to fluorescent resorufin, in cell work by metabolically active cells.

Data set [2] relates to Mycobacterium avium. The data set is described as follows: MIC on Mycobacterium avium with BACTEC. In kind it is cell-based. Conditions: for MIC: Mycobacterium avium, BACTEC.
Data set [3] has as its system Mycobacterium tuberculosis H37Rv (ATCC27294). In kind it is cell-based.
The format of data set [4] is physicochemical. As for the experimental part:
To ensure that Compound 2 is dissolved in water, in the assays carried out with solubility enhancing cyclodextrin molecules, different cyclodextrins [hydroxypropyl beta-cyclodextrin (HP-β-CD), sulfobutyl ether beta-cyclodextrin (SBE-β-CD)], different methods [kneading, evaporation, lyophilization], different solvents (dimethyl sulfoxide, methanol, ethanol) were studied at the molar ratio of 1: 1 compound: cyclodextrin.

Data set [5] is classed as physicochemical. As for the experimental part: In the assays carried out with the solubility enhancing Polysorbate 80 (Tween 80) in order to ensure water solubility of Compound 2, firstly solubility of the compound was determined in an aqueous solution prepared with a mass ratio of 1:6 (compound: Tween 80) and then the same mass ratio was studied with different solvents (ethanol, methanol) and different drying methods (evaporation, evaporation+lyophilization). In light of the results of solubility obtained and presented below Table 2, it has determined that the solution of the compound that was prepared with the Tween 80 in methanol medium had the highest solubility rate after evaporation.
Details of the method where high solubility was determined with Polysorbate 80 (Tween 80) are presented below: After the substances at the mass ratio of 1:6 (compound: Tween 80) were dissolved in 7 ml methanol, they were evaporated in a rotating evaporator at 175 RPM, at a temperature of 40°C and a vacuum of […]. The thin film obtained was firstly blended with vortex adding 3 ml water, and then was left to rest for 15 minutes in an ultrasonic bath. The mixture obtained was filtered out with a plastic filter having a pore diameter of 0.2 µm and afterward solubility ratio of the mixture was determined with HPLC.
The source holds these as a separate data set.

A short description of data set [6]: In vivo animal toxicity tests (maximum tolerable dose).
Where [7] appears, read: read-out: MIC H37Rv (µg/ml), value in parentheses.
Setting [8] is: first value of the cell (outside parentheses), MABA, read-out: MIC H37Rv.
The mark [9] stands for this setting: value printed in parentheses after the bound <12.5, read-out: MIC H37Rv (µg/ml), value in parentheses.
Where [10] appears, read: first value of the cell (outside parentheses), MABA.

In brackets after ≈: the same amount, converted by molar mass. Read-outs that look alike come from different tables or passages of the source.

For `CC(=NNc1nc(-c2ccccc2)cs1)c1ccc2c(c1)CCC2` [Compound 11, 2-[2-(1-(2,3-Dihydro-1H-inden-5-yl)ethylidene)hydrazinyl]-4-phenylthiazole], the MIC in data set [1] (read-out: MIC H37Rv (µg/ml)) is less than 12.5 µg/mL; in data set [1] (setting [7]), 3.13 µg/mL (≈ 9.39 µM); in data set [2], 12.5 µg/mL (≈ 37.5 µM).
In the case of `CC(=NNc1nc(-c2ccccc2O)cs1)c1ccc2c(c1)CCC2` [Compound 4, 2-[2-(2-(1-(2,3-Dihydro-1H-inden-5-yl)ethylidene)hydrazinyl)thiazol-4-yl]phenol], the MIC in data set [1] (setting [8]) is less than 12.5 µg/mL; in data set [1] (setting [9]), 0.2 µg/mL (≈ 0.572 µM); in data set [2] it was 0.78 µg/mL (≈ 2.23 µM).
With `C/C(=N\Nc1nc(-c2ccc(C)cc2)cs1)c1ccc2c(c1)CCC2` [Compound 7], the “Primary screening % inhibition” value in data set [3] was determined as 94%. Besides, the results for the MIC in data set [1] (read-out: MIC H37Rv (µg/ml)), in data set [1] (setting [7]) and in data set [2] were less than 12.5 µg/mL, 0.2 µg/mL (≈ 0.576 µM) and 0.2 µg/mL (≈ 0.576 µM), respectively.
Take `COc1ccc(O)c(-c2csc(NN=C(C)c3ccc4c(c3)CCC4)n2)c1` [Compound 2, 2-[2-(2-(1-(2,3-dihydro-1H-inden-5-yl)ethylidene)hydrazinyl)thiazole-4-yl]-4-methoxy phenol]: the MIC in data set [1] (setting [8]) was less than 0.05 µg/mL. Also, the “MIC H37Rv” value in data set [1] (setting [10]) is less than 0.05 µg/mL. For the same compound, in data set [2], the “activity on Mycobacterium avium” value is “exhibited activity” and the MIC came out at 0.39 µg/mL (≈ 1.03 µM). Besides, in data set [4], the increase in solubility entry was “any significant increase in solubility was not observed”. The “dissolved in water at the ratio of” value in data set [4] (HP-β-CD, molar ratio 1:1, evaporation method within ethanol) worked out at 0.59 µg/mL. For the same compound, in data set [5], the “Solubility ratio in the aqueous solution” value is “Solubility ratio in the aqueous solution prepared with the mass ratio of 1:6 (compound: Tween 80) 42,44 µg/ml” and the “The ratio of water solubility” value is listed as 58,80 µg/ml. The “The ratio of water solubility” value in data set [5] (15 min) is 70,05 µg/ml.
Take `CC(=NNC(N)=S)c1ccc2c(c1)CCC2` [Compound 1, 2-[1-(2,3-dihydro-1H-inden-5-yl)ethylidene]hydrazinecarbothioamide]: in data set [1] (setting [8]), the MIC was less than 0.03 µg/mL. For the same compound, in data set [1] (setting [10]), the “MIC H37Rv” value is less than 0.03 µg/mL. In data set [6], the maximum tolerable dose is given as 1000 mg/kg.
Regarding `CC(=NNc1nc(-c2ccc(C)cc2O)cs1)c1ccc2c(c1)CCC2` [Compound 9, 2-[2-(2-(1-(2,3-Dihydro-1H-inden-5-yl)ethylidene)hydrazinyl)thiazol-4-yl]-5-methylphenol], the MIC is less than 12.5 µg/mL in data set [1] (setting [8]), 0.05 µg/mL (≈ 0.138 µM) in data set [1] (setting [9]) and 0.1 µg/mL (≈ 0.275 µM) in data set [2].
`CC(=NNc1nc(-c2cc(Cl)ccc2O)cs1)c1ccc2c(c1)CCC2` [Compound 5, 4-Chloro-2-[2-(2-(1-(2,3-dihydro-1H-inden-5-yl)ethylidene)hydrazinyl)thiazol-4-yl]phenol]: the MIC in data set [1] (setting [8]) is less than 12.5 µg/mL.
As for `CC(=NNc1nc(-c2ccc(Br)cc2)cs1)c1ccc2c(c1)CCC2` [Compound 6, 4-(4-Bromophenyl)-2-[2-(1-(2,3-dihydro-1H-inden-5-yl)ethylidene)hydrazinyl] thiazole], the values for the MIC in data set [1] (setting [8]), in data set [1] (setting [9]) and in data set [2] were less than 12.5 µg/mL, 0.39 µg/mL (≈ 0.946 µM) and 1.56 µg/mL (≈ 3.78 µM), respectively.
`C/C(=N\Nc1nc(-c2ccc([N+](=O)[O-])cc2)cs1)c1ccc2c(c1)CCC2` [Compound 10]: in data set [3], the “Primary screening % inhibition” value was determined as 93%. The values for the MIC in data set [1] (read-out: MIC H37Rv (µg/ml)), in data set [1] (setting [7]) and in data set [2] were less than 12.5 µg/mL, 1.56 µg/mL (≈ 4.12 µM) and 3.13 µg/mL (≈ 8.27 µM), respectively.
On to `COc1ccc(-c2csc(NN=C(C)c3ccc4c(c3)CCC4)n2)c(O)c1` [Compound 8, 2-[2-(2-(1-(2,3-Dihydro-1H-inden-5-yl)ethylidene)hydrazinyl)thiazol-4-yl]-5-methoxyphenol], for which the MIC in data set [1] (setting [8]) is less than 12.5 µg/mL.
Take `CC(=NNc1nc(-c2ccc(Cl)cc2)cs1)c1ccc2c(c1)CCC2` [Compound 3, 4-(4-Chlorophenyl)-2-[2-(1-(2,3-dihydro-1H-inden-5yl)ethylidene)hydrazinyl] thiazole]: the MIC in data set [1] (setting [8]) is less than 12.5 µg/mL; in data set [1] (setting [9]), 0.39 µg/mL (≈ 1.06 µM); in data set [2], 0.78 µg/mL (≈ 2.12 µM).
Turning to `CO[C@H]1/C=C/O[C@@]2(C)Oc3c(C)c(O)c4c(O)c(c(/C=N/N5CCN(C)CC5)c(O)c4c3C2=O)NC(=O)/C(C)=C\C=C\[C@H](C)[C@H](O)[C@@H](C)[C@@H](O)[C@@H](C)[C@H](OC(C)=O)[C@@H]1C` [Rifampicin, reference compound], the MIC in data set [1] (setting [8]) came out at 0.25 µg/mL (≈ 0.304 µM).
